This note sets out measurements from ChEMBL document CHEMBL1135275, “Structural approach of the mechanism of inhibition of alpha-chymotrypsin by coumarins” (Bioorg Med Chem Lett, 2002).

The structures appear in SMILES notation.

The assay deals with Chymotrypsinogen B (Bos taurus) (UniProt P00767). The assay is described as follows: The compound was tested for inhibitory potency against Chymotrypsinogen.
Chymotrypsinogen B (Bos taurus), sequence (P00767 16-146 limits assumed, other chains not shown): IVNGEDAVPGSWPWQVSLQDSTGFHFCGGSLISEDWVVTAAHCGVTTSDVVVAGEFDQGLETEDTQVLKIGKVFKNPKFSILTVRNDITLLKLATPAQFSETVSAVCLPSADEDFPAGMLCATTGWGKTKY
Chymotrypsinogen B (Bos taurus), sequence (P00767 149-245 limits assumed, other chains not shown): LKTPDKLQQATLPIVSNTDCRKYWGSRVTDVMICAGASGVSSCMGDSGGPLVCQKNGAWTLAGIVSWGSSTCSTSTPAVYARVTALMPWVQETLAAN
On to `O=C(c1ccccc1)c1cc2cc(CCl)ccc2oc1=O`, for which the K inact/Km turned out to be 2400 M⁻¹ s⁻¹. Take `O=C(Nc1ccccc1)c1cc2cc(CCl)ccc2oc1=O`: the K inact/Km is 200 M⁻¹ s⁻¹.

Regarding `O=C(Sc1ccccc1)c1cc2cc(CCl)ccc2oc1=O`, the K inact/Km was 48000 M⁻¹ s⁻¹. Turning to `O=C(Cc1ccccc1)c1cc2cc(CCl)ccc2oc1=O`, the K inact/Km was 10000 M⁻¹ s⁻¹. As for `O=C(Oc1ccccc1)c1cc2cc(CCl)ccc2oc1=O`, the K inact/Km worked out at 100000 M⁻¹ s⁻¹.
